Source: patent publication US7988958B2, “Enterococcus and Streptococcus strains and bacteriocins” (The United States of America as represented by the …, priority 2005, dated 2011)

Assays:
Assay in all cases: MIC of purified bacteriocins and antibiotic by Spot Test
Assay type in all cases: cell-based
[1] = tested on: Helicobacter pylori; conditions: H. pylori; 24 hours at 37° C., microaerobic
Procedure: (§1) The minimal inhibiting concentrations (MICs) of bacteriocins 760 and 50-52 and Methicillin were determined by Spot Test. Various concentrations of purified bacteriocins (μg/ml) in a volume of 10 μl was added to cultures of Staphylococcus aureus, Staphylococcus epidermidis, Pseudomonas aeruginosa, and Helicobacter pylori. The cultures were incubated for about 24 hours at about 37° C. under aerobic conditions for all but Helicobacter pylori which was incubated under microaerobic conditions.

[2] = tested on: Pseudomonas aeruginosa; conditions: P. aeruginosa; 24 hours at 37° C., aerobic
Procedure: as §1

[3] = tested on: Staphylococcus aureus; conditions: S. aureus; 24 hours at 37° C., aerobic
Procedure: as §1

[4] = tested on: Staphylococcus epidermidis; conditions: S. epidermidis; 24 hours at 37° C., aerobic
Procedure: as §1

Structure (SMILES): COc1cccc(OC)c1C(=O)N[C@@H]1C(=O)N2[C@@H]1SC(C)(C)[C@@H]2C(=O)O [Methicillin, reference compound]
- MIC of purified Bacteriocins and Antibiotic [1]: 93.8 µg/mL
- MIC of purified Bacteriocins and Antibiotic [2]: 78.4 µg/mL
- MIC of purified Bacteriocins and Antibiotic [3]: 52.5 µg/mL
- MIC of purified Bacteriocins and Antibiotic [4]: 64.8 µg/mL
